The source of these data is ChEMBL document CHEMBL1201862, “PubChem BioAssay data set” (2004).

Calls of active or inactive are those of the source.

A short description of experiment [1]: HGIII-sPLA2 enzyme inhibition potency – biochemical, QFRET, IC50, dose response (AID 743457).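 Further: green fluorescence rise as the enzyme cleaves BODIPY PC-A2 in liposomes.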
For experiment [2], the target named is T1, Fatty acid synthase (Homo sapiens, UniProt P49327). The experiment in a line: inhibition of human FAS-TE enzyme activity – biochemical, kinetic fluorescence intensity, dose response (AID 624326).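 Further: rate of fluorescence rise from hydrolysis of a fluorogenic O-methyl fluorescein ester substrate.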 In kind it is functional.
The target of experiment [3] is T1, Fatty acid synthase. Put plainly: inhibition of human FAS-TE enzyme activity – biochemical, endpoint fluorescence intensity, uHTS hits, dose response (AID 624327).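 Further: fluorescence from hydrolysis of an O-methyl fluorescein acyl ester substrate by the enzyme.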 In kind it is functional.
The target of experiment [4] is T2, Oxysterols receptor LXR-beta (Homo sapiens, UniProt P55055).
T2 sequence (P55055 whole entry): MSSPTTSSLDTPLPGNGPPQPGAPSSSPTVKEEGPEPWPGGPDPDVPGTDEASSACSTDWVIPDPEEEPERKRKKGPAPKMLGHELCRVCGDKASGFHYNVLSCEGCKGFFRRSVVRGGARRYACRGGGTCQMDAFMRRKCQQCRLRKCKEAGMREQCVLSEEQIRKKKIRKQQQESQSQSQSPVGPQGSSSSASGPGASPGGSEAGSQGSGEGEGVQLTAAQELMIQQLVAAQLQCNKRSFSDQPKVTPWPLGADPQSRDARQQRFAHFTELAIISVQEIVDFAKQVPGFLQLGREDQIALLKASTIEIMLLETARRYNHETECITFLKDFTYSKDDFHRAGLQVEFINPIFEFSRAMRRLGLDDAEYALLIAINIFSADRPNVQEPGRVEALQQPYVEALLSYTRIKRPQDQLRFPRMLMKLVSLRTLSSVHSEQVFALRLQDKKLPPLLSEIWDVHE
The experiment in a line: LXR agonists, Gal4 luciferase reporter, dose response, counter-screen for ssDAF-12 agonist project, cell-based, luminescence, HEK293, S. stercoralis campaign (AID 720737). In kind it is functional. Particulars: read-out: IC50 (the source's name). Background: Reporter assays use an easily measured gene product as a stand-in for the process of interest.

Experiment [5] in a line: Luminescence-based cell-based high throughput dose response assay to identify activators of the DAF-12 from the parasite S. stercoralis (ssDAF-12). It counts as functional.
Experiment [6] in a line: viability loss in THP-1 monocytes – THP-1 cells, cytotoxicity control for Vif-APOBEC3G degradation inhibitor project, dose response (AID 1117359). It counts as functional. To be noted: THP-1.
The test system of experiment [7] is INS1. Put plainly: INS-1E survival protection against cytokine death – cell-based, luminescence, retest, dose response (AID 449756).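 Further: cell death triggered by IL-1 beta plus TNF-alpha plus IFN-gamma mixture; protective hits raise ATP signal compared with cytokine alone wells.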 In kind it is functional. Particulars: Rattus norvegicus.
Experiment [8] in a line: Dd2 malaria parasite growth inhibition potency – SYBR Green, dry powder samples, dose response (AID 1159566).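 Further: potency for growth inhibition with lower SYBR green DNA signal.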 It counts as functional, cell-based.
Experiment [9] in a line: toxicity to human HepG2 hepatoma cells – cell-based, plate reader, dry powder samples, cytotoxicity control, dose response (AID 1159569).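 Further: inhibitor potency with signal falling toward the positive control level.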 In kind it is functional.
Experiment [10] can be described thus: blockers of bursicon-stimulated LGR2 cAMP reporter – cell-based, HEK293, CRE-luciferase reporter, cherry pick, set 2, dose response (AID 743343).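 Further: transfected cells were stimulated with diluted bursicon conditioned medium after compound addition.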 In kind it is functional.
The target of experiment [11] is Paired box protein Pax-8 (Homo sapiens, UniProt Q06710). Put plainly: PAX8 transcriptional activity inhibition in RMG-I – RMG-I cells, luciferase, cherry-pick, dose response (AID 687027).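 Further: luciferase reporter driven by Pax8 target thyroperoxidase promoter measured by SteadyGlo luminescence.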 In kind it is functional, cell-based.
Experiment [12] in a line: A549 cell cytotoxicity, dose response, cytotoxicity control, plate reader, cherry-pick, antagonist series (AID 743412). In kind it is functional, cell-based.
The nature of experiment [13]: P. falciparum Dd2 growth inhibitors, dose response, SYBR Green, cherry-picked samples (AID 1159567). In kind it is functional, cell-based.
A short description of experiment [14]: toxicity toward HepG2 liver cells – cell-based, plate reader, cherry-pick, antagonist series, cytotoxicity control, dose response (AID 743416). In kind it is functional.
Experiment [15] in a line: OVCAR8 cell viability loss – plate reader, dry powder samples, PAX8 project, dose response (AID 743197). To be noted: OVCAR-8. It counts as functional, cell-based.
A short description of experiment [16]: blockade of melanocortin 4 receptor signaling – cell-based, plate reader, cherry pick, counter-screen for LGR2 antagonist project, dose response (AID 743444).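 Further: transfected HEK 293 cells stimulated with alpha-MSH peptide; potency of inhibitors of the alpha-MSH evoked signal.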 It counts as functional. For orientation: A counterscreen serves to expose hits that act by an unwanted route or on another target.
Experiment [17] can be described thus: growth inhibition of PfATP4-mutant resistant parasites – NITD609-resistant line, SYBR Green, dry powder, dose response (AID 1159571).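 Further: parasites synchronized at ring stage by sorbitol before testing.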 It counts as functional, cell-based.
Experiment [18] is described as follows: toxicity to human hepatoma HepG2 cells – cell-based, cherry-picked samples, cytotoxicity control, dose response (AID 1159577). It counts as functional.
The nature of experiment [19]: growth inhibition of yeast DHODH-expressing 3D7 parasites – SYBR Green, dry powder samples, dose response (AID 1159570).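 Further: parasite growth measured after 72 hours of compound exposure.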 It counts as functional, cell-based.
Experiment [20] in a line: NIH3T3 cell viability loss – ATP luminescence, mouse fibroblasts, counter-screen, dose response (AID 2010).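 Further: cells exposed to compound for about 90 hours before reading.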 In kind it is functional, cell-based.
Experiment [21] has as its target T3, Protein Tat (Human immunodeficiency virus type 1 group M subtype B (isolate HXB2)(HIV-1), UniProt P04608).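 Further: tat binding to TAR RNA read out by fluorescence polarization.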
T3 sequence (P04608 whole entry): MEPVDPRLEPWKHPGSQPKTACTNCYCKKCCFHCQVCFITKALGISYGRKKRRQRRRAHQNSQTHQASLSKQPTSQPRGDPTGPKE
It counts as functional.

Experiment [22] can be described thus: Trypanosoma cruzi growth suppression in host cells – NIH3T3 host cells, beta-gal luminescence, confirmation (AID 2044).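 Further: intracellular parasites grown in NIH/3T3 mouse fibroblasts as host cells; luminescent beta-galactosidase reporter signal from transgenic T. cruzi replicating inside host cells; inhibitors lower the luminescence signal.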 It counts as functional, cell-based.
The target of experiment [23] is T4, Interleukin-8 (Homo sapiens, UniProt P10145).
T4 sequence (P10145 whole entry): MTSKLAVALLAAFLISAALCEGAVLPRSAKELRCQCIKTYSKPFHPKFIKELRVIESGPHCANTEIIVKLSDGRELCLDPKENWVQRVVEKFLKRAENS
Put plainly: Dose Response confirmation of uHTS small molecule hits for cystic fibrosis induced NFkb Inhibitors in a TNFa-induced IL8 counterscreen. It counts as functional. To be noted: read-out: IC50_Mean.

For experiment [24], the target named is T4, Interleukin-8. Put plainly: Dose Response confirmation of uHTS small molecule hits for cystic fibrosis induced NFkb Inhibitors in a PAF-induced IL8 counterscreen. In kind it is functional. To be noted: read-out: IC50_Mean.
Experiment [25] can be described thus: viability loss in HeLa cells – cytotoxicity control for MgcRacGAP inhibitor project, dose response (AID 624300). It counts as functional.
In experiment [26] the target is T5, Rac GTPase-activating protein 1 (Homo sapiens, UniProt Q9H0H5).
T5 sequence (Q9H0H5 whole entry): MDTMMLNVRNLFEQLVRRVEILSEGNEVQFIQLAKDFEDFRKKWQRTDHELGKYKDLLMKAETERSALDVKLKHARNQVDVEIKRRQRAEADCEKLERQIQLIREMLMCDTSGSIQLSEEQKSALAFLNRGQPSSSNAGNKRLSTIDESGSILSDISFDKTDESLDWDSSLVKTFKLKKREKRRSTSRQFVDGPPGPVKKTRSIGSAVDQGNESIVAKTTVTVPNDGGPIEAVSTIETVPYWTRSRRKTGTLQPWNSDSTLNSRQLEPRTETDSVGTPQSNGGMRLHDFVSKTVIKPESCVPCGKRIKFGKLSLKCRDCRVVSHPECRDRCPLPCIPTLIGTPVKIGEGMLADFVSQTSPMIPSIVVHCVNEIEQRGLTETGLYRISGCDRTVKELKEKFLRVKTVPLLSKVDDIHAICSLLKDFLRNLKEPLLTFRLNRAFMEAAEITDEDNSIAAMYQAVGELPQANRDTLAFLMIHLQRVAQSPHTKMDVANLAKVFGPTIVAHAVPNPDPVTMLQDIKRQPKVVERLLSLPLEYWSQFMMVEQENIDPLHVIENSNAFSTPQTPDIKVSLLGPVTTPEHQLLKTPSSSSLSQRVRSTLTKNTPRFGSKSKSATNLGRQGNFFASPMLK
The experiment in a line: blockers of MgcRacGAP-driven Rac1 GTP hydrolysis – biochemical, ADP Hunter fluorescence, primary and confirmatory, confirmation (AID 624330). In kind it is functional.

T1 sequence (P49327 whole entry): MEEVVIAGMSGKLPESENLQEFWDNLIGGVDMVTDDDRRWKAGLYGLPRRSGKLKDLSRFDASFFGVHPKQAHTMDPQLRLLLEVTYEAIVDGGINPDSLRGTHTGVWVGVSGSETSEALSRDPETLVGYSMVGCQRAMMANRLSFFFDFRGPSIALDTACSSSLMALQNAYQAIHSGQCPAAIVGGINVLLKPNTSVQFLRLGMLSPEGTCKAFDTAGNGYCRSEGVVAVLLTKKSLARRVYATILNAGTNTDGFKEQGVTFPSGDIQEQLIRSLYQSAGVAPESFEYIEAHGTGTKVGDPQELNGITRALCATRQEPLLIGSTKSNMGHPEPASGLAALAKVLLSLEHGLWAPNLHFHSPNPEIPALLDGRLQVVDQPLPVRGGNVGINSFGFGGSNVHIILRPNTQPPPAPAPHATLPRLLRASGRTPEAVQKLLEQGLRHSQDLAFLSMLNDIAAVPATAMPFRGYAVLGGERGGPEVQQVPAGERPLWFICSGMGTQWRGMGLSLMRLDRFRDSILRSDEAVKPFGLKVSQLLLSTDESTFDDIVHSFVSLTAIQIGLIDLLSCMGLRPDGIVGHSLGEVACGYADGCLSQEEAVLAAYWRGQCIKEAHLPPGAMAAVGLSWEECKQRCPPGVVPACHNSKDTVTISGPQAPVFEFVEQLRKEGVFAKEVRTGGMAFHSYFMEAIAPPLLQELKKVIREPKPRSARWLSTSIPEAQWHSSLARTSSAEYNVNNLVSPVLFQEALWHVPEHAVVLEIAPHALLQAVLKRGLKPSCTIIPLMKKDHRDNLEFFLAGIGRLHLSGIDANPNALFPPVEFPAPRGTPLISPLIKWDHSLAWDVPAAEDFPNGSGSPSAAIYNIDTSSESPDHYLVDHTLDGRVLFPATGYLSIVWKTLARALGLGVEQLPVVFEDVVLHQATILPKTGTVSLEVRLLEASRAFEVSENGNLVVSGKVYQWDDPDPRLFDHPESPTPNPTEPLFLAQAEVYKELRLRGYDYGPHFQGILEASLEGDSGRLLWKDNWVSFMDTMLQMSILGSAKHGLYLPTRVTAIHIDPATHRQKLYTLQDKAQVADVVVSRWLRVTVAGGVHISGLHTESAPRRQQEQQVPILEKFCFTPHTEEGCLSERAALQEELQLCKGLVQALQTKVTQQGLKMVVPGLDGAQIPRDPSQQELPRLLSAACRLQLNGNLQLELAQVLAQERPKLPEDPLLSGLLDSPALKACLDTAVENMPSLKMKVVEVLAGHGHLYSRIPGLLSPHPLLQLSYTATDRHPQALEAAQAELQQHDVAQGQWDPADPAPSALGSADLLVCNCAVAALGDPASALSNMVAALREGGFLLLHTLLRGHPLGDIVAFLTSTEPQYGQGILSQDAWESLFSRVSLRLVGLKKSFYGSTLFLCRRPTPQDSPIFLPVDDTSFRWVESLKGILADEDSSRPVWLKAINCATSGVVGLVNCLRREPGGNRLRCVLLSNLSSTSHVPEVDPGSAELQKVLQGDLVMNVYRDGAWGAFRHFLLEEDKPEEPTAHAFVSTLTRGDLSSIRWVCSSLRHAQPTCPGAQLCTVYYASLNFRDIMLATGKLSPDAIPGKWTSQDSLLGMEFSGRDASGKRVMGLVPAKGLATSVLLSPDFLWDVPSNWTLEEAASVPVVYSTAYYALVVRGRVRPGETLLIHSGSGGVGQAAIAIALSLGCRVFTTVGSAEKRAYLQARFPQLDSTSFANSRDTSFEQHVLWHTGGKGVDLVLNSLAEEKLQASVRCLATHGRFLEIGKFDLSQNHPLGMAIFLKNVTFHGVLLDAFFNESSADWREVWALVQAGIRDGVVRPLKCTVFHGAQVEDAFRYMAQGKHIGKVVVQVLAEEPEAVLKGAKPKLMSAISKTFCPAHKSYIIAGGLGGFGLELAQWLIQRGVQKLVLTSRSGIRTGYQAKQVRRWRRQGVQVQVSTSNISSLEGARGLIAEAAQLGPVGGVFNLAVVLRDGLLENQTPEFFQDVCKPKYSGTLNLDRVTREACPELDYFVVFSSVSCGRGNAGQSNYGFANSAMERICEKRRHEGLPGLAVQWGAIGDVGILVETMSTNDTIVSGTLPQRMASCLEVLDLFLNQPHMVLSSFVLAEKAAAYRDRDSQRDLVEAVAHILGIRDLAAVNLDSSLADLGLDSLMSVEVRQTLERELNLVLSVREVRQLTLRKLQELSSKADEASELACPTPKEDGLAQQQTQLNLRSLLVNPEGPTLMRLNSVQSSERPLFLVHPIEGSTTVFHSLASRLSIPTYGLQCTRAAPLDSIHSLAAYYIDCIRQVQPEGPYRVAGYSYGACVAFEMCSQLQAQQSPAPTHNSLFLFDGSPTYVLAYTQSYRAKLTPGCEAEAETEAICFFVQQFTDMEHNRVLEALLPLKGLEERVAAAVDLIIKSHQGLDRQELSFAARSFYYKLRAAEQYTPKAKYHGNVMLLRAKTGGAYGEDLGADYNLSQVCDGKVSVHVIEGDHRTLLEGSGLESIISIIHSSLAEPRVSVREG
Chain of Paired box protein Pax-8 (Q06710 whole entry): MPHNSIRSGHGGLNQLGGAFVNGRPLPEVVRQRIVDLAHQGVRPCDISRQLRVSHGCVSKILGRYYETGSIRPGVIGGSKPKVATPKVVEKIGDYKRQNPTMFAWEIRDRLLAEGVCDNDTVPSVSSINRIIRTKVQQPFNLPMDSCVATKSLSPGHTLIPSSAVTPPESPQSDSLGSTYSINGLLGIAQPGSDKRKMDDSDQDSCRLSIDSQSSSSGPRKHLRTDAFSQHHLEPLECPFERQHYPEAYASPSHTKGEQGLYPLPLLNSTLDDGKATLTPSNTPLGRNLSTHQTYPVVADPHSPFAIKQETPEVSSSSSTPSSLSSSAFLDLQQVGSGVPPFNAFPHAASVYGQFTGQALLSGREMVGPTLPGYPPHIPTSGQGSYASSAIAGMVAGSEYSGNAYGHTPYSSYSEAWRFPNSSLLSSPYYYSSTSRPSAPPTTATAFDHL

With `N=C(N)SCc1ccc(Cl)c2ccccc12`, the IC50 in experiment [1] is > 122 µM (inactive).
For `CCOC(=O)C1CCN(C(=O)COc2ccc([N+](=O)[O-])cc2)CC1`, the IC50 in [2] was 9.05 µM (active); in experiment [3] it was 9.85 µM (active).
On to `CCOc1ccc(-c2noc(COC)n2)cc1OC`, for which, in experiment [4], the EC50 is > 67.5 µM (inactive). Moreover, in [5], the IC50 was > 67.5 µM (inactive).
Consider `CCCOC(=O)/C(C(=N)NCc1ccccc1)=C(/O)OCCC`, for which, in experiment [6], the CC50 is > 40 µM (active). In experiment [7], the AC50 is 97 µM (active).
As for `O=C(COC(=O)c1cccc([N+](=O)[O-])c1)NCc1cccs1`, the IC50 was 18.7 µM (active) in [2] and 13.9 µM (active) in experiment [3].
Take `C[C@@H]1CN([C@H](C)CO)C(=O)c2c(c3ccccc3n2C)-c2ccccc2CO[C@@H]1CN(C)S(=O)(=O)c1ccc(C(F)(F)F)cc1`: the AC50 in [8] is 1.76 µM (active); in experiment [9], 15.1 µM (active); in experiment [10] it was 25.9 µM (active); in [11], 5.24 µM (active); in experiment [12] it was 19.4 µM (active); in [13], 2.41 µM (active). Moreover, the AC50 in experiment [14] was 17.7 µM (active); in [15], > 70 µM (inactive); in experiment [16], 35.3 µM (active); in experiment [17], 2.62 µM (active); in [18], > 42 µM (inactive); in [19], 3.33 µM (active).
Turning to `COc1cccc(C(=O)Oc2cc3c4c(c2)C(C)=CC(C)(C)N4C(=O)C3=O)c1`, the IC50 in experiment [1] is 43.2 µM (inactive).
Consider `FC(F)(F)c1ccc(Oc2ccc(Cl)cc2Br)nc1`, for which, in experiment [4], the EC50 was > 67.5 µM (inactive). Besides, in experiment [5], the IC50 was > 67.5 µM (inactive).
`O=C1OC(c2ccc(F)cc2)=C/C1=C\c1ccc([N+](=O)[O-])o1`: the EC50 was > 60 µM (not active) in experiment [20] and 0.501 µM (active) in [22]. Further, the IC50 in [21] is > 100 µM (active).
On to `COc1ccccc1/C=C(/CC(=O)NCc1ccccc1)c1nc2ccccc2s1`, for which the IC50 in [21] is > 100 µM (active).
On to `Cc1ccc(/N=C/c2cc3c(cc2O)OC(N)=C(C#N)C3c2ccccc2)cc1` (configuration not stated), for which the IC50 in experiment [23] was > 79 µM (inactive); in experiment [24] it was 5.76 µM (active).
With `COc1cc(/C=N/NC(=O)c2cccc(NC(=O)c3ccccc3C)c2)ccc1O`, the CC50 in experiment [25] is 100 µM (active). In addition, in [26], the IC50 was 35.9 µM (active).

As usually defined, the CC50 is the concentration giving 50% cytotoxicity. For orientation: AC50 means the concentration at which the activity in the assay is half-maximal.
